Our source for the melting point values is patent US7928098B2, “Therapeutic and/or preventive agents for a sleep disorder” (Kyowa Hakko Kirin Co., Ltd., priority 2005, dated 2011).

In turn, `O=C(CN1CCN(C2CCOCC2)CC1)Nc1nc(-c2ccco2)c(C(=O)c2ccccn2)s1` [Compound 187, N-[4-(2-Furyl)-5-(pyridin-2-ylcarbonyl)thiazol-2-yl]-2-[4-(tetrahydropyran-4-yl)piperazin-1-yl]acetamide] showed a melting point of 172 to 188 °C.
Under `CC(=O)c1ccc(C(=O)Nc2nc(-c3ccco3)c(C(=O)c3ccccn3)s2)cc1` [Compound 116, 4-Acetyl-N-[4-(2-furyl)-5-(pyridin-2-ylcarbonyl)thiazol-2-yl]benzamide] stands 204 to 206 °C; under `Cc1cnc(C(=O)c2sc(NC(=O)c3ccncc3)nc2-c2ccco2)s1` [Compound 256, N-[4-(2-Furyl)-5-(5-methylthiazol-2-ylcarbonyl)thiazol-2-yl]pyridine-4-carboxamide], 275 to 277 °C (dec.); under `CC(C)C(=O)c1sc(NC(=O)c2ccncc2)nc1-c1ccco1` [Compound 300, N-[4-(2-Furyl)-5-isobutyrylthiazol-2-yl]pyridine-4-carboxamide], 179 to 182 °C.
With `O=C(Nc1nc(-c2ccco2)c(C(=O)c2ccc(N3CCOCC3)nc2)s1)c1ccncc1` [Compound 231, N-[4-(2-Furyl)-5-(2-morpholinopyridin-5-ylcarbonyl)thiazol-2-yl]pyridine-4-carboxamide] the figure was 195 to 220 °C; with `O=C(Nc1nc(-c2ccco2)c(C(=O)c2ccccn2)s1)c1ccncc1Cl` [Compound 123, 3-Chloro-N-[4-(2-furyl)-5-(pyridin-2-ylcarbonyl)thiazol-2-yl]pyridine-4-carboxamide], 206 to 207 °C; with `O=C1CCC(C(=O)c2sc(NC(=O)c3ccco3)nc2-c2ccco2)CC1` [Compound 355, N-[4-(2-Furyl)-5-(4-oxocyclohexylcarbonyl)thiazol-2-yl]-furan-2-carboxamide], 232 to 235 °C.
Under `CC1CCN(CC(=O)Nc2nc(-c3ccco3)c(C(=O)c3ccccn3)s2)CC1` [Compound 174, N-[4-(2-Furyl)-5-(pyridin-2-ylcarbonyl)thiazol-2-yl]-2-(4-methylpiperidino)acetamide] stands 104 to 106 °C; under `O=C(Nc1nc(-c2ccco2)c(C(=O)C2CCOCC2)s1)c1ccccn1` [Compound 412, N-[4-(2-Furyl)-5-(tetrahydropyran-4-ylcarbonyl)thiazol-2-yl]pyridine-2-carboxamide], 185 to 186 °C.
Consider `O=C(CN1CCSCC1)Nc1nc(-c2ccco2)c(C(=O)c2ccccn2)s1` [Compound 190, N-[4-(2-Furyl)-5-(pyridin-2-ylcarbonyl)thiazol-2-yl]-2-thiomorpholinoacetamide], for which the melting point lay in the range of 148 to 149 °C.
Under `O=C1CCC(C(=O)c2sc(NC(=O)c3ccncc3)nc2-c2ccco2)CC1` [Compound 353, N-[4-(2-Furyl)-5-(4-oxocyclohexylcarbonyl)thiazol-2-yl]-pyridine-4-carboxamide] stands 206 to 212 °C; under `O=C(Nc1nc(-c2ccco2)c(C(=O)c2ccccn2)s1)OC1CCOCC1` [Compound 161, 4-Tetrahydropyranyl N-[4-(2-furyl)-5-(pyridin-2-ylcarbonyl)thiazol-2-yl]carbamate], 144 to 145 °C.
Under `COc1ccc(C(=O)Nc2nc(-c3ccco3)c(C(=O)c3ccccn3)s2)cc1OC` [Compound 111, N-[4-(2-Furyl)-5-(pyridin-2-ylcarbonyl)thiazol-2-yl]-3,4-dimethoxybenzamide] stands 169 to 170 °C; under `N#Cc1cccc(C(=O)Nc2nc(-c3ccco3)c(C(=O)c3ccccn3)s2)c1` [Compound 113, 3-Cyano-N-[4-(2-furyl)-5-(pyridin-2-ylcarbonyl)thiazol-2-yl]benzamide], 234 to 237 °C.
Under `O=C(Nc1nc(-c2ccco2)c(C(=O)c2ccccn2)s1)c1cc[nH]c(=O)c1` [Compound 139, N-[4-(2-Furyl)-5-(pyridin-2-ylcarbonyl)thiazol-2-yl]-2-oxo-1,2-dihydropyridine-4-carboxamide] stands 170 to 180 °C (dec.).
Consider `O=C(Nc1nc(-c2ccco2)c(C(=O)c2cc[nH]c2)s1)c1ccncc1` [Compound 260, N-[4-(2-Furyl)-5-(pyrrol-3-ylcarbonyl)thiazol-2-yl]pyridine-4-carboxamide], for which the melting point lay in the range of 259 to 260 °C.
With `COc1cc(C(=O)c2sc(NC(=O)c3ccncc3)nc2-c2ccco2)ccn1` [Compound 243, N-[4-(2-Furyl)-5-(2-methoxypyridin-4-ylcarbonyl)thiazol-2-yl]pyridine-4-carboxamide] the figure was 237 to 239 °C.
Under `Cc1cc(C(=O)Nc2nc(-c3ccco3)c(C(=O)c3ccccn3)s2)ccn1` [Compound 120, N-[4-(2-Furyl)-5-(pyridin-2-ylcarbonyl)thiazol-2-yl]-2-methylpyridine-4-carboxamide] stands 187 to 188 °C; under `CN(C)c1ccc(C(=O)Nc2nc(-c3ccco3)c(C(=O)C3CCOCC3)s2)cc1` [Compound 370, 4-(Dimethylamino)-N-[4-(2-furyl)-5-(tetrahydropyran-4-ylcarbonyl)thiazol-2-yl]benzamide], 238 to 240 °C.
In turn, `CCCC(=O)c1sc(NC(=O)c2ccco2)nc1-c1ccco1` [Compound 293, N-[5-Butyryl-4-(2-furyl)thiazol-2-yl]furan-2-carboxamide] showed a melting point of 172 to 176 °C.
Under `CCOC(=O)Nc1nc(-c2ccco2)c(C(=O)c2ccccn2)s1` [Compound 158, Ethyl N-[4-(2-furyl)-5-(pyridin-2-ylcarbonyl)thiazol-2-yl]carbamate] stands 158 to 159 °C; under `O=C(Nc1nc(-c2ccco2)c(C(=O)c2ccccn2)s1)c1cncc(Br)c1` [Compound 134, 5-Bromo-N-[4-(2-furyl)-5-(pyridin-2-ylcarbonyl)thiazol-2-yl]pyridine-3-carboxamide], 259 to 262 °C; under `O=C(Nc1nc(-c2ccco2)c(C(=O)C2CCCC2)s1)C1CC1` [Compound 339, N-[5-(Cyclopentylcarbonyl)-4-(2-furyl)thiazol-2-yl]cyclopropanecarboxamide], 182 to 187 °C.
On to `COc1cccc(C(=O)Nc2nc(-c3ccco3)c(C(=O)C3CCOCC3)s2)c1OC` [Compound 388, N-[4-(2-Furyl)-5-(tetrahydropyran-4-ylcarbonyl)thiazol-2-yl]-2,3-dimethoxybenzamide], for which the melting point lay in the range of 198 to 200 °C.
Take `O=C(Nc1nc(-c2ccco2)c(C(=O)C2CCOCC2)s1)c1ccc2c(c1)OCO2` [Compound 401, N-[4-(2-Furyl)-5-(tetrahydropyran-4-ylcarbonyl)thiazol-2-yl]-1,3-benzodioxol-5-carboxamide]: the melting point was in the range of 194 to 196 °C.
Under `Cn1cc(C(=O)Nc2nc(-c3ccco3)c(C(=O)C3CCOCC3)s2)cn1` [Compound 424, N-[4-(2-Furyl)-5-(tetrahydropyran-4-ylcarbonyl)thiazol-2-yl]-1-methylpyrazole-4-carboxamide] stands 243 to 247 °C.
Under `O=C(Nc1nc(-c2ccco2)c(C(=O)c2ccccn2)s1)c1ccc2c(c1)OCO2` [Compound 117, N-[4-(2-Furyl)-5-(pyridin-2-ylcarbonyl)thiazol-2-yl]-3,4-methylenedioxybenzamide] stands 235 to 236 °C; under `O=C(Nc1nc(-c2ccco2)c(C(=O)C2CCOCC2)s1)c1ccc(F)cc1F` [Compound 395, 2,4-Difluoro-N-[4-(2-furyl)-5-(tetrahydropyran-4-ylcarbonyl)thiazol-2-yl]benzamide], 213 to 215 °C.
Under `O=C(Nc1nc(-c2ccco2)c(C(=O)c2ccccc2)s1)c1ccc(=O)n(Cc2ccncc2)c1` [Compound 60, N-[5-Benzoyl-4-(2-furyl)thiazol-2-yl]-2-oxo-1-(pyridin-4-ylmethyl)-1,2-dihydropyridine-5-carboxamide] stands 270 to 275 °C; under `Cc1cc(C(=O)c2sc(NC(=O)c3ccncc3)nc2-c2ccco2)ccn1` [Compound 239, N-[4-(2-Furyl)-5-(2-methylpyridin-4-ylcarbonyl)thiazol-2-yl]pyridine-4-carboxamide], 223 to 225 °C; under `Cn1cc(C(=O)c2sc(NC(=O)c3ccncc3)nc2-c2ccco2)ccc1=O` [Compound 267, N-[4-(2-Furyl)-5-(1-methyl-2-oxo-1,2-dihydropyridin-5-ylcarbonyl)thiazol-2-yl]pyridine-4-carboxamide], 294 to 295 °C.
`O=C(Nc1nc(-c2ccco2)c(C(=O)c2cccs2)s1)c1ccncc1` [Compound 254, N-[4-(2-Furyl)-5-(thiophen-2-ylcarbonyl)thiazol-2-yl]-pyridine-4-carboxamide] displayed a melting point of 208 to 210 °C.
Under `COC1CCC(C(=O)c2sc(NC(=O)c3ccncc3)nc2-c2ccco2)CC1` (stereo not shown) [Compound 347, N-[4-(2-Furyl)-5-(4-methoxycyclohexylcarbonyl)thiazol-2-yl]pyridine-4-carboxamide] stands 180 to 187 °C; under `CC(C)C(=O)c1sc(NC(=O)C2CC2)nc1-c1ccco1` [Compound 301, N-[4-(2-Furyl)-5-isobutyrylthiazol-2-yl]cyclopropanecarboxamide], 178 to 182 °C.
With `O=C(Nc1nc(-c2ccco2)c(C(=O)C2CCOCC2)s1)c1ccccc1Cl` [Compound 374, 2-Chloro-N-[4-(2-furyl)-5-(tetrahydropyran-4-ylcarbonyl)-thiazol-2-yl]benzamide] the figure was 160 to 162 °C.
Consider `Cn1nnc2ccc(C(=O)Nc3nc(-c4ccco4)c(C(=O)c4ccccn4)s3)cc21` [Compound 153, N-[4-(2-Furyl)-5-(pyridin-2-ylcarbonyl)thiazol-2-yl]-1-methyl-1H-benzotriazole-6-carboxamide], for which the melting point was 230 to 231 °C.
Under `COc1ccc(C(=O)Nc2nc(-c3ccco3)c(C(=O)C3CCOCC3)s2)cc1OC` [Compound 392, N-[4-(2-Furyl)-5-(tetrahydropyran-4-ylcarbonyl)thiazol-2-yl]-3,4-dimethoxybenzamide] stands 289 to 292 °C.

For orientation: melting point means the temperature, or range, at which the solid turns liquid.
